Experimental data: patent publication US8541407B2 (ArQule, Inc., priority 2010, dated 2013)
Where a name gives a salt, the structure may show the parent alone.

How the values were obtained:
AKT1 [1] = target: T1, AKT1 (Homo sapiens (Human), UniProt P31749); test: Inactive Akt HTRF Assay (AKT1); details: *labeled: Akt HTFR assay; read-out: AKT1 biochemical assay, IC50
Procedure: AKT1 activity was assayed using CisBio KinEASE™ HTRF Assay technology. This technology utilizes a proprietary biotinylated peptide substrate (STKS3), streptavidin labeled XL665 antibody, and STK antibody-Eu^3+-cryptate. AKT1 activation was achieved by the addition of the activating kinases PDK1 and MAPKAPK2, lipid vesicles, and ATP. The extent of STKS3 biotinylated peptide phosphorylation was determined using a phospho-STK antibody-Eu^3+-cryptate and streptavidin labeled XL665 antibody. XL665 was stimulated by Eu^3+-cryptate resulting in a TR-FRET signal proportional to the STKS3 phosphorylation level.
Representative compounds of the invention and controls ((S)-1-((5-(3-methyl-1H-indazol-5-yl)pyridin-3-yl)oxy)-3-phenylpropan-2-amine, 1-(1-(4-(7-phenyl-1H-imidazo[4,5-g]quinoxalin-6-yl)benzyl)piperidin-4-yl)-1H-benzo[d]imidazol-2(3H)-one, and 8-(4-(1-aminocyclobutyl)phenyl)-9-phenyl-[1,2,4]triazolo[3,4-f][1,6]naphthyridin-3(2H)-one) were prepared in 10% DMSO at 10-fold the desired final concentration, and added to each well of a reaction plate (Corning 96-well half-area solid black nonbinding surface plate) in a volume of 2.5 μL. […] After a 20 minute pre-incubation at room temperature, the kinase reaction was initiated by the addition of 5 μL of an activation mixture diluted in assay buffer containing biotinylated STKS3, PDK1, MAPKAPK2, DOPS/DOPC, PtdIns(3,4,5)P3, and ATP for final concentrations of 150 nM biotinylated STKS3, 1 nM (AKT1), 2.5 nM (AKT2), or 0.4 nM (AKT3) PDK1, 0.8 nM (AKT1), 2 nM (AKT2), or 0.3 nM (AKT3) MK2, 5.5 μM DOPS, 5.5 μM DOPC, 0.5 μM PtdIns(3,4,5)P3, and 50 μM ATP. The plates were incubated for 30 minutes at room temperature, and then stopped by the addition of 25 μL HTRF Detection Buffer containing phospho-STK antibody-Eu^3+-cryptate and streptavidin labeled XL665 antibody, at dilutions of 1:192 and 1:500 respectively. Final assay dilutions of phospho-STK antibody-Eu^3+-cryptate and streptavidin labeled XL665 antibody were 1:384 and 1:1,000 respectively. Assay plates were incubated for 60 minutes at room temperature, and the plates were read on a Perkin Elmer Envision Multilabel plate reader (excitation: 320 nm, emission I: 665 nm, emission II: 615 nm).

AKT1 [2] = target: T1, AKT1; test: Inactive Akt Alpha Screen Assay; details: non *labeled: Akt Alpha Screen assay; read-out: AKT1 biochemical assay, IC50
Summary of the method: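 AKT1 activated in situ by PDK1, MAPKAPK2, lipid vesicles and ATP, then phosphorylating biotinylated crosstide for 30 min at room temperature. Stopped with 10 mM EDTA; phosphopeptide detected by AlphaScreen using phospho-AKT substrate antibody (1:350), Protein A acceptor and streptavidin donor beads, 90 min dark, ex 640/em 570 nm.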

A2780 = test: MTS Assay, cell proliferation analysis (A2780); type: cell-based; details: Homo sapiens; A2780 cells; 72 hours; 10 Percent FBS
Procedure: (§1) Cell proliferation analysis. Cell survival was determined by the MTS assay. Briefly, cells were plated in a 96-well plate at 2,000-10,000 cells per well, cultured for 24 hours in complete growth medium, and then treated with representative compounds of the invention or combinations thereof for 72 hours. MTS was added and incubated for 4 hours, followed by assessment of cell viability by using the microplate reader at 570 nm. Data were normalized to untreated controls and analyzed.

AN3-CA = test: MTS Assay, cell proliferation analysis (AN3-CA); type: cell-based; details: Homo sapiens; AN3-CA cells; 72 hours; 10 Percent FBS
Procedure: as §1

IGROV-1 = test: MTS Assay, cell proliferation analysis (IGROV-1); type: cell-based; details: Homo sapiens; IGROV-1 cells; 72 hours; 10 Percent FBS
Procedure: as §1

T1 sequence (P31749 whole entry): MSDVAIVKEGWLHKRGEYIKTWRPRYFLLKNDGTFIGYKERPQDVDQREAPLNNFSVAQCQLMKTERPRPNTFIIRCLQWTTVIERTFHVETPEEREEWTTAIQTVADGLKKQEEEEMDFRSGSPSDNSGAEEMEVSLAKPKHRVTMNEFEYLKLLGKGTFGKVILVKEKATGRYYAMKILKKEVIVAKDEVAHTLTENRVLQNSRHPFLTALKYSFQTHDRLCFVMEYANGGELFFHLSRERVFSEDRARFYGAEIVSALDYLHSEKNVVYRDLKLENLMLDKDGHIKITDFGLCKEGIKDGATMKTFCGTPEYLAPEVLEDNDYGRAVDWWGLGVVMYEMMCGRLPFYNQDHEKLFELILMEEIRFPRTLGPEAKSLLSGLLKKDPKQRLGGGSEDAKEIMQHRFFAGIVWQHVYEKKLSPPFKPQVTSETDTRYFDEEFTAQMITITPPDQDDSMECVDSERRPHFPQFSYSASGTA

For `NC1CCN(C(=O)c2ccc(-c3nnc4n3-c3cccnc3Nc3ccccc3-4)cc2)CC1` [Example 211, (4-(9H-benzo[f]pyrido[2,3-b][1,2,4]triazolo[4,3-d][1,4]diazepin-3-yl)phenyl)(4-aminopiperidin-1-yl)methanone], the IC50 (AKT1 [1]) was 70 µM.
Compound `CC(C)(C)OC(=O)NCc1ccc(-c2nnc3n2-c2cccnc2Nc2ccccc2-3)cc1` [Example 213, tert-butyl 4-(9H-benzo[f]pyrido[2,3-b][1,2,4]triazolo[4,3-d][1,4]diazepin-3-yl)benzylcarbamate] has an IC50 (AKT1 [1]) of 14 µM.
Compound `Cc1ccc(C(=O)Nc2ccc(-c3nnc4n3-c3cccnc3Nc3ccccc3-4)cc2)cc1` [Example 30, N-(4-(9H-benzo[f]pyrido[2,3-b][1,2,4]triazolo[4,3-d][1,4]diazepin-3-yl)phenyl)-4-methylbenzamide] has an IC50 (AKT1 [2]) of 0.1 µM, an IC50 (A2780) of 6 µM and an IC50 (AN3-CA) of 7 µM. It also gave an IC50 (IGROV-1) of 28 µM.
Compound `ClCc1ccc(-c2nnc3n2-c2cccnc2Nc2ccccc2-3)cc1` [Example 127, 3-(4-(chloromethyl)phenyl)-9H-benzo[f]pyrido[2,3-b][1,2,4]triazolo[4,3-d][1,4]diazepine] has an IC50 (AKT1 [2]) of 1.9 µM, an IC50 (A2780) of 9 µM and an IC50 (IGROV-1) of 13 µM.
Compound `O=C(c1ccc(-c2nnc3n2-c2cccnc2Nc2ccccc2-3)cc1)N1CCNCC1` [Example 209, (4-(9H-benzo[f]pyrido[2,3-b][1,2,4]triazolo[4,3-d][1,4]diazepin-3-yl)phenyl)(piperazin-1-yl)methanone] has an IC50 (AKT1 [1]) of 17 µM.
Compound `CC(C)(C)OC(=O)NCCc1ccc(-c2nnc3n2-c2cccnc2Nc2ccccc2-3)cc1` [Example 212, tert-butyl 4-(9H-benzo[f]pyrido[2,3-b][1,2,4]triazolo[4,3-d][1,4]diazepin-3-yl)phenethylcarbamate] has an IC50 (AKT1 [1]) of 4.3 µM.
Compound `NCCc1ccc(-c2nnc3n2-c2cccnc2Nc2ccccc2-3)cc1` [Example 214, 2-(4-(9H-benzo[f]pyrido[2,3-b][1,2,4]triazolo[4,3-d][1,4]diazepin-3-yl)phenyl)ethanamine] has an IC50 (AKT1 [1]) of 14 µM.
For `c1ccc(-c2nnc(C3CCN(Cc4ccc(-c5nnc6n5-c5cccnc5Nc5ccccc5-6)cc4)CC3)[nH]2)nc1` [Example 63, 3-(4-((4-(5-(pyridin-2-yl)-4H-1,2,4-triazol-3-yl)piperidin-1-yl)methyl)phenyl)-9H-benzo[f]pyrido[2,3-b][1,2,4]triazolo[4,3-d][1,4]diazepine], the IC50 (AKT1 [2]) was 0.084 µM, the IC50 (A2780) was 17 µM and the IC50 (AN3-CA) was 34 µM. For the same compound, the IC50 (IGROV-1) was 10 µM.
Work on `CN(C)c1ccc(-c2nnc3n2-c2cccnc2Nc2ccccc2-3)cc1` [hydrochloride] yielded an IC50 (AKT1 [2]) of 1.6 µM, an IC50 (A2780) of 17 µM and an IC50 (IGROV-1) of 90 µM.
For `CC(C)(C)OC(=O)N1CCN(C(=O)c2ccc(-c3nnc4n3-c3cccnc3Nc3ccccc3-4)cc2)CC1` [Example 208, tert-butyl 4-(4-(9H-benzo[f]pyrido[2,3-b][1,2,4]triazolo[4,3-d][1,4]diazepin-3-yl)benzoyl)piperazine-1-carboxylate], the IC50 (AKT1 [1]) was 41 µM.
`NC1(c2ccc(-c3nnc4n3-c3cccnc3Nc3ccc(Br)cc3-4)cc2)CCC1` [Example 219, 1-(4-(12-bromo-9H-benzo[f]pyrido[2,3-b][1,2,4]triazolo[4,3-d][1,4]diazepin-3-yl)phenyl)cyclobutanamine] was tested, and the IC50 (AKT1 [2]) was 0.13 µM, the IC50 (A2780) was 16 µM and the IC50 (AN3-CA) was 45 µM. The IC50 (IGROV-1) was 10 µM.
For `O=C(Nc1ccc(-c2nnc3n2-c2cccnc2Nc2ccccc2-3)cc1)c1ccc(F)cc1` [Example 56, N-(4-(9H-benzo[f]pyrido[2,3-b][1,2,4]triazolo[4,3-d][1,4]diazepin-3-yl)phenyl)-4-fluorobenzamide], the IC50 (AKT1 [2]) was 0.11 µM, the IC50 (A2780) was 14 µM and the IC50 (AN3-CA) was 28 µM. For the same compound, the IC50 (IGROV-1) was 70 µM.
For `CN(C)c1ccc(C(=O)NCc2ccc(-c3nnc4n3-c3cccnc3Nc3ccccc3-4)cc2)cc1` [Example 98, N-(4-(9H-benzo[f]pyrido[2,3-b][1,2,4]triazolo[4,3-d][1,4]diazepin-3-yl)benzyl)-4-(dimethylamino)benzamide], the IC50 (AKT1 [2]) was 0.11 µM, the IC50 (A2780) was 6 µM and the IC50 (AN3-CA) was 8 µM. For the same compound, the IC50 (IGROV-1) was greater than 100 µM.
`O=C(NC1(c2ccc(-c3nnc4n3-c3cccnc3Nc3ccccc3-4)cc2)CCC1)c1ccccc1` [Example 193, N-(1-(4-(9H-benzo[f]pyrido[2,3-b][1,2,4]triazolo[4,3-d][1,4]diazepin-3-yl)phenyl)cyclobutyl)benzamide] showed an IC50 (AKT1 [2]) of 0.073 µM, an IC50 (A2780) of 12 µM and an IC50 (AN3-CA) of 22 µM.
`NC1(c2ccc(-c3nnc4n3-c3cccnc3Nc3ccccc3-4)cc2)CCC1` [Example 126, 1-(4-(9H-benzo[f]pyrido[2,3-b][1,2,4]triazolo[4,3-d][1,4]diazepin-3-yl)phenyl)cyclobutanamine] gave an IC50 (AKT1 [2]) of 0.099 µM, an IC50 (A2780) of 31 µM and an IC50 (AN3-CA) of 40 µM. The IC50 (IGROV-1) was 6 µM.
For `COc1cccc(S(=O)(=O)NCc2ccc(-c3nnc4n3-c3cccnc3Nc3ccccc3-4)cc2)c1` [Example 114, N-(4-(9H-benzo[f]pyrido[2,3-b][1,2,4]triazolo[4,3-d][1,4]diazepin-3-yl)benzyl)-3-methoxybenzenesulfonamide], the IC50 (AKT1 [2]) was 0.14 µM, the IC50 (A2780) was 16 µM and the IC50 (AN3-CA) was 25 µM.
`O=c1[nH]c2ccccc2n1C1CCN(Cc2ccc(-c3nnc4n3-c3ccccc3Nc3ccccc3-4)cc2)CC1` [Example 128, 1-(1-(4-(9H-dibenzo[b,f][1,2,4]triazolo[4,3-d][1,4]diazepin-3-yl)benzyl)piperidin-4-yl)-1H-benzo[d]imidazol-2(3H)-one] gave an IC50 (AKT1 [2]) of 0.94 µM, an IC50 (A2780) of 11 µM and an IC50 (IGROV-1) greater than 100 µM.
`O=C(Nc1cccc(C(F)(F)F)c1)NC1CCN(Cc2ccc(-c3nnc4n3-c3cccnc3Nc3ccccc3-4)cc2)CC1` [Example 174, 1-(1-(4-(9H-benzo[f]pyrido[2,3-b][1,2,4]triazolo[4,3-d][1,4]diazepin-3-yl)benzyl)piperidin-4-yl)-3-(3-(trifluoromethyl)phenyl)urea] gave an IC50 (AKT1 [2]) of 0.63 µM, an IC50 (A2780) of 8 µM and an IC50 (AN3-CA) of 13 µM.
For `Brc1ccc2c(c1)-c1nnc(-c3ccc(CN4CCC(c5nnc(-c6ccccn6)[nH]5)CC4)cc3)n1-c1cccnc1N2` [Example 228, 12-bromo-3-(4-((4-(5-(pyridin-2-yl)-4H-1,2,4-triazol-3-yl)piperidin-1-yl)methyl)phenyl)-9H-benzo[f]pyrido[2,3-b][1,2,4]triazolo[4,3-d][1,4]diazepine], the IC50 (AKT1 [2]) was 0.096 µM, the IC50 (A2780) was 13 µM and the IC50 (AN3-CA) was 56 µM. The IC50 (IGROV-1) was 6 µM.
In the case of `O=C(NCCc1ccc(-c2nnc3n2-c2cccnc2Nc2ccccc2-3)cc1)Nc1ccccc1` [Example 110, 1-(4-(9H-benzo[f]pyrido[2,3-b][1,2,4]triazolo[4,3-d][1,4]diazepin-3-yl)phenethyl)-3-phenylurea], the IC50 (AKT1 [2]) is reported as 0.12 µM, the IC50 (A2780) is reported as 6 µM and the IC50 (AN3-CA) is reported as 8 µM.
Compound `COc1cccc(C(=O)Nc2ccc(-c3nnc4n3-c3cccnc3Nc3ccccc3-4)cc2)c1` [Example 27, N-(4-(9H-benzo[f]pyrido[2,3-b][1,2,4]triazolo[4,3-d][1,4]diazepin-3-yl)phenyl)-3-methoxybenzamide] has an IC50 (AKT1 [2]) of 0.16 µM, an IC50 (A2780) of 10 µM and an IC50 (AN3-CA) of 25 µM. It also gave an IC50 (IGROV-1) of 23 µM.
With `c1ccc2c(c1)Nc1ncccc1-n1c(-c3ccc(CN4CCC(c5c[nH]c6ccccc56)CC4)cc3)nnc1-2` [Example 187, 3-(4-((4-(1H-indol-3-yl)piperidin-1-yl)methyl)phenyl)-9H-benzo[f]pyrido[2,3-b][1,2,4]triazolo[4,3-d][1,4]diazepine] the IC50 (AKT1 [2]) was 0.5 µM, the IC50 (A2780) was 6 µM and the IC50 (AN3-CA) was 8 µM.
